Laboratory results published in article PMC10310851 (Signal Transduction and Targeted Therapy, 2023).
Read-outs that look alike come from different tables or passages of the source. Each block holds one compound with its values, some of them ahead of it.

Key:
[1] = system: NSCLC with ROS1 rearrangements; set-up: method as in PMID 28520527; settings: cited from earlier work
[2] = system: ROS1-positive advanced NSCLC; set-up: method as in PMID 29596029; settings: cited from earlier work
[3] = system: Lung cancer cell NCI-H2228; assay: Growth inhibition of cancer cell lines: NCI-H2228; assay type: cell-based; settings: Homo sapiens
ROS1-rearranged NSCLC [4] = system: ROS1-rearranged NSCLC; set-up: method as in PMID 31416808; settings: 2/6, METROS trial ref 13; cited from earlier work
[5] = system: Lung cancer cell NCI-H3122; assay: Growth inhibition of cancer cell lines: NCI-H3122; assay type: cell-based; settings: Homo sapiens
[6] = system: Gastric cancer cell SNU-5; assay: Growth inhibition of cancer cell lines: SNU-5; assay type: cell-based; settings: Homo sapiens
[7] = set-up: method as in PMID 31751012; settings: cited from earlier work
ROS1-rearranged NSCLC [8] = system: ROS1-rearranged NSCLC; set-up: method as in PMID 34511132; settings: first-line, cited from earlier work
[9] = set-up: method as in PMID 25264305; settings: cited from earlier work
[10] = system: ROS1 fusion-positive NSCLC; settings: cited from earlier work
[11] = no radiotherapy within the preceding 6 months ref 21
[12] = radiotherapy within the preceding 6 months ref 21

Structure (SMILES): Cc1cc(Nc2ncc(Cl)c(Nc3ccccc3S(=O)(=O)C(C)C)n2)c(OC(C)C)cc1C1CCNCC1 [ceritinib]
Intracranial ORR [1]: 29%

IC50 [3]: 358 nM
IC50 [5]: 214 nM
IC50 [6]: 29.1 nM
Structure (SMILES): C[C@@H](Oc1cc(-c2cnn(C3CCNCC3)c2)cnc1N)c1c(Cl)ccc(F)c1Cl [crizotinib]
ORR by IRC ([2]; OO 12-01 study ref 15): 71.7%
DCR [2]: 88.2%
Median PFS [2]: 15.9 months
Rate of drug dose interruptions due to TRAEs [2]: 22.8%
Intracranial ORR (ROS1-rearranged NSCLC [4]): 33%
Any grade elevated ALT [7]: 14%
Any grade elevated AST [7]: 22%
Grade III or higher elevated ALT [7]: 4%
Grade III or higher elevated AST [7]: 2%
Median PFS (ROS1-rearranged NSCLC [8]; non-CD74-ROS1 fusions ref 27): 21.0 months
Median PFS (ROS1-rearranged NSCLC [8]; tumor harboring CD74-ROS1 ref 27): 17.0 months
Dizziness [9]: 16%
Dysgeusia [9]: 18%
Ophthalmological AEs [9]: 82%
Reduced neutrophil count [9]: 12%

Structure (SMILES): CN1CCN(c2ccc(C(=O)Nc3n[nH]c4ccc(Cc5cc(F)cc(F)c5)cc34)c(NC3CCOCC3)c2)CC1 [entrectinib]
DCR [10]: 75.8%
Intracranial ORR [10]: 79.2%
Median PFS [10]: 15.7 months
Median intracranial PFS ([10]; measurable central nervous system lesions at baseline ref 21): 12.0 months
Intracranial ORR [10, 11]: 46.2%
Intracranial PFS [10, 11]: 8.8 months
ORR ([10]; overall patient population ref 21): 67.1%
ORR ([10]; patients who had brain metastases at baseline ref 21): 62.5%
ORR ([10]; patients with CD74-ROS1 fusions ref 21): 72.9%
Intracranial ORR [10, 12]: 60%
Intracranial PFS [10, 12]: 16.1 months
